The values below come from US20050282818A1, “Ubiquitin ligase inhibitors” (Rigel Pharmaceuticals, Inc., priority 2004, published 2005).

By IC50 is commonly meant the concentration that inhibits the measured activity by half. A high value points to a need for much substance.

This test deals with T1, TRAF6/Uev1A/Ubc13 (Homo sapiens, UniProt Q9Y4K3).
T1 sequence (Q9Y4K3 1-522): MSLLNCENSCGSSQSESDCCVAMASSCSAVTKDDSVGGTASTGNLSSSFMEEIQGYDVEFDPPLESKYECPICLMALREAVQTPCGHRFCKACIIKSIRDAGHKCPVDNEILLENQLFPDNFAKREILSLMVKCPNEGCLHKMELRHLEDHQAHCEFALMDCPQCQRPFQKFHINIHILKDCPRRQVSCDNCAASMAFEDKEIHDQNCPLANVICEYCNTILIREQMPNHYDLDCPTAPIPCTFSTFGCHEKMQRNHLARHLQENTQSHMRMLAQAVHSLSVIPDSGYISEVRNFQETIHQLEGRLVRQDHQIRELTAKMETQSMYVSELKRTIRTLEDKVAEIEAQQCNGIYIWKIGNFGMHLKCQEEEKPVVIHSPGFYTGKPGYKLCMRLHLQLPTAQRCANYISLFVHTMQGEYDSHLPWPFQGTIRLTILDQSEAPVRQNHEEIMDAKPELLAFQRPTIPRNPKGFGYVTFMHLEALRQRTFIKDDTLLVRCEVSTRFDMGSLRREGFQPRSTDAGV
In words: TRAF6/Uev1A/Ubc13 plate-based ubiquitin ligase assay. It is filed as biochemical. The protocol:
For the assays described below, the TRAF6/Uev1A/UBC13 assay is the biochemical plate-based assay of TRAF6 ligase activity using Ubc13 as the E2 enzyme. The gel-based assay is the biochemical solution-based TRAF6 ligase assay (by SDS-PAGE and Western blot) to confirm the plate-based ELISA assay. The APC assay is an assay which is another E3 ligase (APC2/APC11) biochemical assay.
A 96-well Ni-plate was blocked with 100 μl of 1% casein in PBS for 1 hour at room temperature. The plates were then washed three times with 200 μl of 1×PBS and 80 μl of a reaction buffer was added per well which contained 50 ng of Flag-ubiquitin, 50 ng of His-ubiquitin, 62.5 mM Tris pH 7.5, 6.25 mM MgCl2, 1.0 mM DTT, and 2 μM ATP. To each well was added 10 μl of a solution of the compound in DMSO. The reaction was started by adding 10 μl of a solution consisting of 10 ng human E1, 25 ng each of Uev1a and Ubc13, and 100 ng TRAF6 in the reaction buffer. The plates were shaken for 10 minutes and incubate at room temperature for 1 hour. After the incubation, the plates were washed three times with 200 μl 1×PBS in 0.05% Tween and 100 μl of an antibody mix consisting of anti-Flag (1:30,000 dilution; Sigma F-3165) and anti-Mouse IgG-HRP (1/150,000 dilution; Jackson Immunoresearch #115-035-146) in 1×PBS with 0.25% BSA. The plates were then incubated for another 1 hour at room temperature, and after incubation the plate was washed three times with 200 μl 1×PBS with 0.05% Tween. The amount of ubiquitin was measured by adding 100 μl of Lumino substrate (1:5 dilution) and reading the luminescence with a fluorimeter.
Table 2 below illustrates the inhibitory activity of the compounds of the invention determined by the TRAF6/Uev1A/Ubc13 assay as well as in the ICAM, APC and the ROC1/CUL1 Ubiquitin Ligase Assay (SCF Assay). The IC50 values were determined using a various concentrations of the compounds.
Turning to `O=S(=O)(Nc1cccc2nonc12)c1ccc(Oc2ccc3c(C(F)(F)F)cc(C(F)(F)F)nc3n2)cc1` [compound 81, N-2,1,3-benzoxadiazol-4-yl-4-{[5,7-bis(trifluoromethyl)-1,8-naphthyridin-2-yl]oxy}benzenesulfonamide], the half-maximal inhibitory concentration (IC50) was at least 20 µM.
For `COC(=O)c1ccc(NS(=O)(=O)c2ccc(Sc3ccc4ccccc4n3)c3nonc23)cc1` [compound 248, methyl 4-({[7-(quinolin-2-ylthio)-2,1,3-benzoxadiazol-4-yl]sulfonyl}amino)benzoate] the value was at least 20 µM.
For `O=S(=O)(c1ccc(Sc2ccncc2)c2nonc12)N1CCN(c2ccccc2)CC1` [compound 251, 4-[(4-phenylpiperazin-1-yl)sulfonyl]-7-(pyridin-4-ylthio)-2,1,3-benzoxadiazole] the value was at least 20 µM; for `O=S(=O)(c1ccc(Sc2ccc3ccccc3n2)c2nonc12)N1CCN(c2ccccc2)CC1` [compound 252, 2-({7-[(4-phenylpiperazin-1-yl)sulfonyl]-2,1,3-benzoxadiazol-4-yl}thio)quinoline], at least 20 µM.
`Cc1cc(F)ccc1Nc1ccc(S(=O)(=O)Nc2ccc(F)cc2C)c2nonc12` [compound 275, N-(4-fluoro-2-methylphenyl)-7-[(4-fluoro-2-methylphenyl)amino]-2,1,3-benzoxadiazole-4-sulfonamide]: the half-inhibitory concentration (IC50) fell in the range of 1 to 20 µM.
In the case of `Cc1cc(F)ccc1NS(=O)(=O)c1ccc(F)c2nonc12` [compound 276, 7-fluoro-N-(4-fluoro-2-methylphenyl)-2,1,3-benzoxadiazole-4-sulfonamide] it was 1 to 20 µM; in that of `O=[N+]([O-])c1ccc(N2CCC(S(=O)(=O)c3ccccn3)CC2)c2nonc12` [compound 289, 4-nitro-7-[4-(pyridin-2-ylsulfonyl)piperidin-1-yl]-2,1,3-benzoxadiazole], at least 20 µM; in that of `COC(=O)c1ccc(NS(=O)(=O)c2ccc(Sc3ccc4ccccc4n3)c3nonc23)cc1` [compound 316, Methyl 4-({[7-(quinolin-2-ylthio)-2,1,3-benzoxadiazol-4-yl]sulfonyl}amino)benzoate], at least 20 µM.
`O=S(=O)(Nc1cccc(F)c1)c1ccc(Nc2cccc(F)c2)c2nonc12` [compound 273, N-(3-fluorophenyl)-7-[(3-fluorophenyl)amino]-2,1,3-benzoxadiazole-4-sulfonamide] had a half-maximal inhibitory concentration (IC50) of at least 20 µM.
In the case of `COC(=O)c1ccc(NS(=O)(=O)c2ccc(Oc3cccc4cccnc34)c3nonc23)cc1` [compound 277, methyl 4-({[7-(quinolin-8-yloxy)-2,1,3-benzoxadiazol-4-yl]sulfonyl}amino)benzoate] it was at least 20 µM.
`O=S(=O)(c1cccc2nsnc12)N1CCC(Oc2ccccc2C(F)(F)F)CC1` [compound 240, 4-({4-[2-(trifluoromethyl)phenoxy]piperidin-1-yl}sulfonyl)-2,1,3-benzothiadiazole] registered an IC50 of at least 20 µM.
Compound `O=[N+]([O-])c1ccc(N2CCN(c3ccc([N+](=O)[O-])c4nonc34)CC2)cc1` [compound 147, 4-nitro-7-[4-(4-nitrophenyl)piperazin-1-yl]-2,1,3-benzoxadiazole] yielded an IC50 of 1 to 20 µM.
Turning to `O=S(=O)(c1ccc(Sc2ccc(O)cc2)c2nonc12)N1CCN(c2ccccc2)CC1` [compound 249, 4-({7-[(4-phenylpiperazin-1-yl)sulfonyl]-2,1,3-benzoxadiazol-4-yl}thio)phenol], the IC50 fell in the range of 1 to 20 µM.
`CCOc1ccc2nc(NS(=O)(=O)c3ccc(Cl)c4nonc34)sc2c1` [compound 198, 7-chloro-N-(6-ethoxy-1,3-benzothiazol-2-yl)-2,1,3-benzoxadiazole-4-sulfonamide] registered a concentration for half-maximal inhibition (IC50) of at least 20 µM.
For `CCN(CC)c1cc(N2CCN(c3ncc(C(F)(F)F)cc3Cl)CC2)c2nonc2c1[N+](=O)[O-]` [compound 293, 7-{4-[3-chloro-5-(trifluoromethyl)pyridin-2-yl]piperazin-1-yl}-N,N-diethyl-4-nitro-2,1,3-benzoxadiazol-5-amine] the value was at least 20 µM; for `CCN(CC)c1cc(N2CCC(O)(c3ccccc3)CC2)c2nonc2c1[N+](=O)[O-]` [compound 299, 1-[6-(diethylamino)-7-nitro-2,1,3-benzoxadiazol-4-yl]-4-phenylpiperidin-4-ol], at least 20 µM; for `CCN(CC)c1cc(N2CCN(c3ccc(Cl)c(C(F)(F)F)c3)CC2)c2nonc2c1[N+](=O)[O-]` [compound 292, 7-{4-[4-chloro-3-(trifluoromethyl)phenyl]piperazin-1-yl}-N,N-diethyl-4-nitro-2,1,3-benzoxadiazol-5-amine], at least 20 µM.
In the case of `O=C1OC2(CCN(c3cc(N4CCCCC4)c([N+](=O)[O-])c4nonc34)CC2)c2ccccc21` [compound 304, 1′-(7-nitro-6-piperidin-1-yl-2,1,3-benzoxadiazol-4-yl)-3H-spiro[2-benzofuran-1,4′-piperidin]-3-one] it was at least 20 µM.
For `O=S(=O)(Nc1cccc2nsnc12)c1ccc(Oc2ccc(C(F)(F)F)cc2Cl)nc1` [compound 117, N-2,1,3-benzothiadiazol-4-yl-6-[2-chloro-4-(trifluoromethyl)phenoxy]pyridine-3-sulfonamide] the value was at least 20 µM; for `O=[N+]([O-])c1ccc(S(=O)(=O)c2cccc3cccnc23)c2nonc12` [compound 290, 8-[(7-nitro-2,1,3-benzoxadiazol-4-yl)sulfonyl]quinoline], at least 20 µM; for `COC(=O)c1ccc(NS(=O)(=O)c2ccc(N3CCSCC3)c3nonc23)cc1` [compound 250, methyl 4-{[(7-thiomorpholin-4-yl-2,1,3-benzoxadiazol-4-yl)sulfonyl]amino}benzoate], at least 20 µM.
Consider `FC(F)(F)c1cccc(-c2cccc3nonc23)c1` [compound 305, 4-[3-(Trifluoromethyl)phenyl]-2,1,3-benzoxadiazole], for which the IC50 is at least 20 µM.
In the case of `CCN(CC)c1cc(N2CCN(c3ncccc3C#N)CC2)c2nonc2c1[N+](=O)[O-]` [compound 294, 2-{4-[6-(diethylamino)-7-nitro-2,1,3-benzoxadiazol-4-yl]piperazin-1-yl}nicotinonitrile] it was at least 20 µM.
For `O=S(=O)(Nc1cccc(F)c1)c1ccc(F)c2nonc12` [compound 272, 7-fluoro-N-(3-fluorophenyl)-2,1,3-benzoxadiazole-4-sulfonamide] the value was at least 20 µM; for `O=[N+]([O-])c1c(N2CCCCC2)cc(N2CCC3(CC2)OCc2ccccc23)c2nonc12` [compound 300, 1′-(7-nitro-6-piperidin-1-yl-2,1,3-benzoxadiazol-4-yl)-3H-spiro[2-benzofuran-1,4′-piperidine]], at least 20 µM.
The compound `O=[N+]([O-])c1c(N2CCCCC2)cc(N2CCN(c3ncc(C(F)(F)F)cc3Cl)CC2)c2nonc12` [compound 296, 7-{4-[3-chloro-5-(trifluoromethyl)pyridin-2-yl]piperazin-1-yl}-4-nitro-5-piperidin-1-yl-2,1,3-benoxadiazole] showed an IC50 of 1 to 20 µM.
On to `CC1(C)CCN(S(=O)(=O)c2ccc(Cl)c3nonc23)CC1` [compound 247, 4-chloro-7-[(4,4-dimethylpiperidin-1-yl)sulfonyl]-2,1,3-benzoxadiazole], for which the 50% inhibitory concentration (IC50) was at least 20 µM.
`FC(F)(F)c1cnc(N2CCN(c3ccc(N4CCOCC4)c4nonc34)CC2)c(Cl)c1` [compound 282, 4-{4-[3-chloro-5-(trifluoromethyl)pyridin-2-yl]piperazin-1-yl}-7-morpholin-4-yl-2,1,3-benzoxadiazole] registered a half-maximal inhibitory concentration (IC50) of at least 20 µM.
In turn, `O=[N+]([O-])c1ccc(N2CCSCC2)c2nonc12` [compound 237, 4-nitro-7-thiomorpholin-4-yl-2,1,3-benzoxadiazole] came in with a concentration for half-maximal inhibition (IC50) of at least 20 µM.
For `O=S(=O)(c1ccc(Sc2cccc3ccccc23)c2nonc12)N1CCN(c2ccccc2)CC1` [compound 253, 4-(1-naphthylthio)-7-[(4-phenylpiperazin-1-yl)sulfonyl]-2,1,3-benzoxadiazole] the value was 1 to 20 µM.
